Results as given in patent US11759462B2, “Spirocyclic compounds as tryptophan hydroxylase inhibitors” (priority 2013, dated 2023).

system: jejunal mucosal 5-HT in mice (C57 BL6); assay: Intestinal 5-HT depletion assay (Example B, single 150 mg/kg oral dose); assay type: in vivo, mouse; conditions: one day after oral administration of a single 150 mg/kg dose, P-value class (ANOVA)
Protocol: The efficacy of the TPH1 inhibitors of the invention was assessed for the ability to decrease intestinal serotonin concentration in mice. Mice (C57 BL6) were administered a single 150 mg/kg dose of test article by oral gavage. Each animal was euthanized by exsanguination under isoflurane anesthesia. Jejunal intestinal mucosa was isolated and homogenized in 300 μL of a buffer containing 0.3M trichloroacetic acid, 0.1M sodium acetate, 10 mM EDTA, 20 mM sodium bisulfate and 50 mM ascorbic acid. Following centrifugation the 5-HT levels in the supernatants were measured by HPLC. The remaining mucosal pellet was solubilized overnight at 37° C. in a 0.1% sodium dodecyl sulfate buffer in 0.1N NaOH followed by determination of protein concentrations using a BCA protein assay (Pierce, Rockford, Ill. 5-HT levels were normalized to protein and data were expressed as mean percent reduction of mucosal 5-HT levels relative to vehicle control SEM (percent 5-HT reduction). All animal studies were carried out with protocols approved by the Institutional Animal Care and Use Committee.
P-values, indicating statistical significance of the data (ANOVA) are provided in the table: * refers to P<0.05, ** refers to P<0.01, *** refers to P<0.005, and refers to P<0.0005.

Molecule | Efficacy (statistical significance of reduction of mucosal 5-HT concentrations relative to vehicle)
Cc1ccn(-c2cc(Cl)ccc2[C@@H](Oc2cc(N3CCC4(CC3)CN[C@H](C(=O)OCCOC(=O)[C@H](N)C(C)C)C4)nc(N)n2)C(F)(F)F)n1 [Example 66c, (S)-2-(((R)-2-amino-3-methylbutanoyl)oxy)ethyl 8-(2-amino-6-((R)-1-(4-chloro-2-(3-methyl-1H-pyrazol-1-yl)phenyl)-2,2,2-trifluoroethoxy)pyrimidin-4-yl)-2,8-diazaspiro[4.5]decane-3-carboxylate] | **** (and refers to P<0.0005)
Cc1ccc([C@@H](Oc2cc(N3CCC4(CC3)CN[C@H](C(=O)O)C4)nc(N)n2)C(F)(F)F)c(-n2ccc(C)n2)c1 [Example 10h, (S)-8-(2-amino-6-((R)-2,2,2-trifluoro-1-(4-methyl-2-(3-methyl-1H-pyrazol-1-yl)phenyl)ethoxy)pyrimidin-4-yl)-2,8-diazaspiro[4.5]decane-3-carboxylic acid] | *** (*** refers to P<0.005)
CCOC(=O)[C@@H]1CC2(CCN(c3cc(O[C@H](c4ccc(-c5ccc(CNC(C)=O)cc5)cc4-n4ccc(C)n4)C(F)(F)F)nc(N)n3)CC2)CN1 [Example 63cp, (S)-ethyl 8-(6-((R)-1-(4′-(acetamidomethyl)-3-(3-methyl-1H-pyrazol-1-yl)-[1,1′-biphenyl]-4-yl)-2,2,2-trifluoroethoxy)-2-aminopyrimidin-4-yl)-2,8-diazaspiro[4.5]decane-3-carboxylate] | *** (*** refers to P<0.005)
CCCCc1ccc(-n2ccc(C)n2)c([C@@H](Oc2cc(N3CCC4(CC3)CN[C@H](C(=O)OCC)C4)nc(N)n2)C(F)(F)F)c1 [Example 63bq, (S)-ethyl 8-(2-amino-6-((R)-1-(5-butyl-2-(3-methyl-1H-pyrazol-1-yl)phenyl)-2,2,2-trifluoroethoxy)pyrimidin-4-yl)-2,8-diazaspiro[4.5]decane-3-carboxylate] | **** (and refers to P<0.0005)
(S)-2-(pivaloyloxy)ethyl 8-(2-amino-6- ((R)-1-(4-chloro-2-(3-methyl-1H-pyrazol- 1-yl)phenyl)-2,2,2- trifluoroethoxy)pyrimidin-4-yl)-2,8- diazaspiro[4.5]decane-3-carboxylate [Example 66d] | **** (and refers to P<0.0005)
Nc1nc(O[C@H](c2ccc(Cl)cc2-c2ccccc2)C(F)(F)F)cc(N2CCC3(CC2)CN[C@H](C(=O)O)C3)n1 [Example 34r, (S)-8-(2-amino-6-((R)-1-(5-chloro-[1,1′-biphenyl]-2-yl)-2,2,2-trifluoroethoxy)pyrimidin-4-yl)-2,8-diazaspiro[4.5]decane-3-carboxylic acid] | *** (*** refers to P<0.005)
CCOC(=O)c1ccccc1-c1ccc(-n2ccc(C)n2)c([C@@H](Oc2cc(N3CCC4(CC3)CN[C@H](C(=O)OCC)C4)nc(N)n2)C(F)(F)F)c1 [Example 63da, (S)-ethyl 8-(2-amino-6-((R)-1-(2′-(ethoxycarbonyl)-4-(3-methyl-1H-pyrazol-1-yl)-[1,1′-biphenyl]-3-yl)-2,2,2-trifluoroethoxy)pyrimidin-4-yl)-2,8-diazaspiro[4.5]decane-3-carboxylate] | *** (*** refers to P<0.005)
Cc1ccn(-c2cc(Cl)ccc2[C@@H](Oc2cc(N3CCC4(CC3)CN[C@H](C(=O)O)C4)nc(C)n2)C(F)(F)F)n1 [Example 28, (S)-8-(6-((R)-1-(4-chloro-2-(3-methyl-H-pyrazol-1-yl)phenyl)-2,2,2-trifluoroethoxy)-2-methylpyrimidin-4-yl)-2,8-diazaspiro[4.5]decane-3-carboxylic acid] | * (* refers to P<0.05)
CCOC(=O)[C@@H]1CC2(CCN(c3cc(O[C@H](c4ccc(-c5ccc(OC)c(OC)c5)cc4)C(F)(F)F)nc(N)n3)CC2)CN1 [Example 63g, (S)-ethyl 8-(2-amino-6-((R)-1-(3′,4′-dimethoxy-[1,1′-biphenyl]-4-yl)-2,2,2-trifluoroethoxy)pyrimidin-4-yl)-2,8-diazaspiro[4.5]decane-3-carboxylate] | *** (*** refers to P<0.005)
CCOC(=O)[C@@H]1CC2(CCN(c3cc(O[C@H](c4ccc(-c5ccc6cnccc6c5)cc4)C(F)(F)F)nc(N)n3)CC2)CN1 [Example 63by, (S)-ethyl 8-(2-amino-6-((R)-2,2,2-trifluoro-1-(4-(isoquinolin-6-yl)phenyl)ethoxy)pyrimidin-4-yl)-2,8-diazaspiro[4.5]decane-3-carboxylate] | *** (*** refers to P<0.005)
CCOC(=O)c1ccc(-n2ccc(C)n2)c([C@@H](Oc2cc(N3CCC4(CC3)CN[C@H](C(=O)OCC)C4)nc(N)n2)C(F)(F)F)c1 [Example 63bh, (S)-ethyl 8-(2-amino-6-((R)-1-(5-(ethoxycarbonyl)-2-(3-methyl-1H-pyrazol-1-yl)phenyl)-2,2,2-trifluoroethoxy)pyrimidin-4-yl)-2,8-diazaspiro[4.5]decane-3-carboxylate] | ** (** refers to P<0.01)
Cc1ccn(-c2cc(Cl)ccc2[C@@H](Oc2cc(N3CCC4(CC3)CNC(C(=O)O)C4)nc(NC3CCCCC3)n2)C(F)(F)F)n1 (stereo partly drawn) [Example 31, 8-(6-((R)-1-(4-chloro-2-(3-methyl-H-pyrazol-1-yl)phenyl)-2,2,2-trifluoroethoxy)-2-(cyclohexylamino)pyrimidin-4-yl)-2,8-diazaspiro[4.5]decane-3-carboxylic acid] | * (* refers to P<0.05)
CCCCOC(=O)[C@@H]1CC2(CCN(c3cc(O[C@H](c4ccc(Cl)cc4-n4ccc(C)n4)C(F)(F)F)nc(N)n3)CC2)CN1 [Example 64g, (S)-butyl 8-(2-amino-6-((R)-1-(4-chloro-2-(3-methyl-1H-pyrazol-1-yl)phenyl)-2,2,2-trifluoroethoxy)pyrimidin-4-yl)-2,8-diazaspiro[4.5]decane-3-carboxylate] | * (* refers to P<0.05)
CCOC(=O)[C@@H]1CC2(CCN(c3cc(O[C@H](c4ccc(-c5ccc6c(c5)CCNC6=O)cc4)C(F)(F)F)nc(N)n3)CC2)CN1 [Example 63bx, (S)-ethyl 8-(2-amino-6-((R)-2,2,2-trifluoro-1-(4-(1-oxo-1,2,3,4-tetrahydroisoquinolin-6-yl)phenyl)ethoxy)pyrimidin-4-yl)-2,8-diazaspiro[4.5]decane-3-carboxylate] | *** (*** refers to P<0.005)
CCOC(=O)CCc1ccc(-c2ccc(-n3ccc(C)n3)c([C@@H](Oc3cc(N4CCC5(CC4)CN[C@H](C(=O)OCC)C5)nc(N)n3)C(F)(F)F)c2)cc1 [Example 63di, (S)-ethyl 8-(2-amino-6-((R)-1-(4′-(3-ethoxy-3-oxopropyl)-4-(3-methyl-1H-pyrazol-1-yl)-[1,1′-biphenyl]-3-yl)-2,2,2-trifluoroethoxy)pyrimidin-4-yl)-2,8-diazaspiro[4.5]decane-3-carboxylate] | *** (*** refers to P<0.005)
CCOC(=O)CCc1ccc([C@@H](Oc2cc(N3CCC4(CC3)CN[C@H](C(=O)OCC)C4)nc(N)n2)C(F)(F)F)c(-n2ccc(C)n2)c1 [Example 63bz, (S)-ethyl 8-(2-amino-6-((R)-1-(4-(3-ethoxy-3-oxopropyl)-2-(3-methyl-1H-pyrazol-1-yl)phenyl)-2,2,2-trifluoroethoxy)pyrimidin-4-yl)-2,8-diazaspiro[4.5]decane-3-carboxylate] | ** (** refers to P<0.01)
(S)-isopropyl 8-(2-amino-6-((R)-1-(4-chloro-2-(3-methyl- 1H-pyrazol-1-yl)phenyl)-2,2,2-trifluoroethoxy)pyrimidin- 4-yl)-2,8-diazaspiro[4.5]decane-3-carboxylate [Example 64h] | ** (** refers to P<0.01)
Cc1ccn(-c2cc(Cl)ccc2[C@@H](Oc2cc(N3CCC4(CC3)CN[C@H](C(=O)OCC(C)(C)C)C4)nc(N)n2)C(F)(F)F)n1 [Example 64f, (S)-neopentyl 8-(2-amino-6-((R)-1-(4-chloro-2-(3-methyl-1H-pyrazol-1-yl)phenyl)-2,2,2-trifluoroethoxy)pyrimidin-4-yl)-2,8-diazaspiro[4.5]decane-3-carboxylate] | **** (and refers to P<0.0005)
CCCOC(=O)[C@@H]1CC2(CCN(c3cc(O[C@H](c4ccc(Cl)cc4-n4ccc(C)n4)C(F)(F)F)nc(N)n3)CC2)CN1 [Example 64e, (S)-propyl 8-(2-amino-6-((R)-1-(4-chloro-2-(3-methyl-1H-pyrazol-1-yl)phenyl)-2,2,2-trifluoroethoxy)pyrimidin-4-yl)-2,8-diazaspiro[4.5]decane-3-carboxylate] | **** (and refers to P<0.0005)
